In patent publication US5126356A, “Piperidine compounds” (Adir et Compagnie, priority 1989, dated 1992):
Structures can show the parent of a compound that is named as a salt. Values belong to the compound of their own block, whether it stands above or below them.

Tests used:
human LDL's = experiment: Oxidative modification of human LDL's by copper sulphate (MDA production); assay type: biochemical; conditions: for IC50: read-out: IC50 (reduction of MDA production by 50%), Cu2+ (copper sulphate 5×10^-6 M), 24 hours
Description: Human LDL's are incubated for 24 hours in the presence of copper sulphate (5×10^-6 M) and in the absence or in the presence of the test compounds (10^-7 M to 10^-4 M).
After incubation, the peroxidation of the LDL's is evaluated by agar gel electrophoresis and by the formation of one of the products of lipid peroxidation: malondialdehyde (MDA) (Parthasarathy S., Young S. G., Witztum J. L., Pittman R. C. and Steinberg D.; J. Clin. Invest. 77, 641-644, 1986).

Alpha adrenergic α2 = experiment: Binding to neurotransmitter receptors: alpha2 adrenergic ([3H] Rauwolscine); conditions: α2, [3H] Rauwolscine; read-out: K0.5
cardiac cells [1] = experiment: Oxidative necrosis of cardiac cells induced by hypoxanthine/xanthine oxidase (α-HBDH release); assay type: cell-based, rat; conditions: for activity at 10 µM / activity at 1 µM / activity at 0.1 µM / inhibition at 1 µM: Rattus norvegicus, Cardiomyocyte, 4 h; for activity at 10 µM / activity at 1 µM / activity at 0.1 µM / necrosis index: XO + HX, control XO + HX = 100, mean ±SD; for activity at 10 µM / activity at 1 µM / activity at 0.1 µM: read-out: necrosis index; for inhibition at 1 µM: from 10^-6 M, read-out: reduction of oxidative necrosis of the cardiomyocytes; for necrosis index: 240 min
Description: Cardiac cells of newly born rats are used between the 5th and 7th day following culturing. Oxidative necrosis is induced by the enzymatic production system of hypoxanthine free radicals (HX, 1 mM) and xanthine oxidase (XO, 10 mU/ml). The necrosis is evaluated 4 hours after the addition of XO/HX by measuring by spectrophotometry the cytosolic α-hydroxybutyrate dehydrogenase (α-HBDH) activity released into the supernatant liquor. Two reference molecules (Probucol, vitamin E) and two molecules representative of the present invention (corresponding to Examples 13 and 19) were tested. The cells are treated with the molecules 16 hours and 1 hour before the start of the experiment after renewal of the medium. At the start of the experiment, the treatment is repeated one last time.
The necrosis index 100 corresponds to the release of 46.7±5.3% of the cytosolic content of α-HBDH into the supernatant liquor in 4 hours.
The results are expressed as the mean ±SD (2<n≤4, 3 to 4 repetitions per experiment).

type L Ca^2+ channel = molecular target: T1, type L Ca^2+ channel (Rattus norvegicus, UniProt P22002); experiment: Inhibition of 45Ca2+ influx through the Ca2+ channel in A7 r5 cells; assay type: cell-based; conditions: 45Ca2+ influx, A7 r5 cells; read-out: K0.5 (50% of 45Ca2+ influx inhibited)
T1 construct: cell lines from the aorta of newly born rats; host or cells: A7 r5

type L calcium channels [2] = experiment: Binding: displacement of [3H] D888 at the Ca2+ channel; conditions: read-out: K0.5 (50% of specifically fixed radioactivity displaced)
Beta adrenergic β = experiment: Binding to neurotransmitter receptors: beta adrenergic ([3H] DHA); conditions: read-out: K0.5
cardiac cells [3] = experiment: Protection of cardiac cells from necrosis induced by intracellular acidosis (αHBDH release); assay type: cell-based, rat; conditions: Rattus norvegicus, Cardiomyocyte
Description: a) Cardiac cells: the cardiac cells are prepared from the hearts of newly born (3 days) Wistar rats in accordance with the technique of RENAUD JF., MEAUX JP., ROMEY G., SCHMID A., LAZDUNSKI M., Activation of the voltage-dependent Ca^2+ channels in rat heart cells by dihydropyridine derivative--Biochem. Biophys. Res. Commun., 125, 405-412 (1984).
The cardiomyocytes are isolated from the ventricles by enzymatic dissociation and cultured at 185,000 cells/cm^2. The cells are kept at 37° C. under an air/CO2 atmosphere (95 V/5 V) saturated with water. The cardiomyocytes are used between the 3rd and 8th day following culturing.
Intracellular acidosis is induced in accordance with the conditions published by RENAUD JF., Internal pH Na^+ and Ca^2+ regulation by trimetazidine during cardiac cell acidosis. Cardiovasc. Drugs and Ther., 1, 667-686 (1988) in the presence or absence of the products to be tested. Cellular necrosis is evaluated by measuring by spectrophotometry using the Boerhinger 124800 kit the kinetics of the release of a cytosolic enzyme α-hydroxybutyrate dehydrogenase (αHBDH) into the extracellular medium.
The signal measured corresponds to the amplitude of the necrosis induced by the acidosis. The values are the means ±SD. The number of experiments is indicated in parentheses.

type L calcium channels [4] = molecular target: T2, type L calcium channels (Oryctolagus cuniculus, UniProt P07293); experiment: Binding: displacement of [3H] PN 200-110 at the Ca2+ channel
T2 construct: microsomal fractions enriched with type L calcium channels; from tissue; host or cells: microsomal fractions

[5] = read-out: amplitude of the necrosis induced by the acidosis

T2 sequence (P07293 whole entry): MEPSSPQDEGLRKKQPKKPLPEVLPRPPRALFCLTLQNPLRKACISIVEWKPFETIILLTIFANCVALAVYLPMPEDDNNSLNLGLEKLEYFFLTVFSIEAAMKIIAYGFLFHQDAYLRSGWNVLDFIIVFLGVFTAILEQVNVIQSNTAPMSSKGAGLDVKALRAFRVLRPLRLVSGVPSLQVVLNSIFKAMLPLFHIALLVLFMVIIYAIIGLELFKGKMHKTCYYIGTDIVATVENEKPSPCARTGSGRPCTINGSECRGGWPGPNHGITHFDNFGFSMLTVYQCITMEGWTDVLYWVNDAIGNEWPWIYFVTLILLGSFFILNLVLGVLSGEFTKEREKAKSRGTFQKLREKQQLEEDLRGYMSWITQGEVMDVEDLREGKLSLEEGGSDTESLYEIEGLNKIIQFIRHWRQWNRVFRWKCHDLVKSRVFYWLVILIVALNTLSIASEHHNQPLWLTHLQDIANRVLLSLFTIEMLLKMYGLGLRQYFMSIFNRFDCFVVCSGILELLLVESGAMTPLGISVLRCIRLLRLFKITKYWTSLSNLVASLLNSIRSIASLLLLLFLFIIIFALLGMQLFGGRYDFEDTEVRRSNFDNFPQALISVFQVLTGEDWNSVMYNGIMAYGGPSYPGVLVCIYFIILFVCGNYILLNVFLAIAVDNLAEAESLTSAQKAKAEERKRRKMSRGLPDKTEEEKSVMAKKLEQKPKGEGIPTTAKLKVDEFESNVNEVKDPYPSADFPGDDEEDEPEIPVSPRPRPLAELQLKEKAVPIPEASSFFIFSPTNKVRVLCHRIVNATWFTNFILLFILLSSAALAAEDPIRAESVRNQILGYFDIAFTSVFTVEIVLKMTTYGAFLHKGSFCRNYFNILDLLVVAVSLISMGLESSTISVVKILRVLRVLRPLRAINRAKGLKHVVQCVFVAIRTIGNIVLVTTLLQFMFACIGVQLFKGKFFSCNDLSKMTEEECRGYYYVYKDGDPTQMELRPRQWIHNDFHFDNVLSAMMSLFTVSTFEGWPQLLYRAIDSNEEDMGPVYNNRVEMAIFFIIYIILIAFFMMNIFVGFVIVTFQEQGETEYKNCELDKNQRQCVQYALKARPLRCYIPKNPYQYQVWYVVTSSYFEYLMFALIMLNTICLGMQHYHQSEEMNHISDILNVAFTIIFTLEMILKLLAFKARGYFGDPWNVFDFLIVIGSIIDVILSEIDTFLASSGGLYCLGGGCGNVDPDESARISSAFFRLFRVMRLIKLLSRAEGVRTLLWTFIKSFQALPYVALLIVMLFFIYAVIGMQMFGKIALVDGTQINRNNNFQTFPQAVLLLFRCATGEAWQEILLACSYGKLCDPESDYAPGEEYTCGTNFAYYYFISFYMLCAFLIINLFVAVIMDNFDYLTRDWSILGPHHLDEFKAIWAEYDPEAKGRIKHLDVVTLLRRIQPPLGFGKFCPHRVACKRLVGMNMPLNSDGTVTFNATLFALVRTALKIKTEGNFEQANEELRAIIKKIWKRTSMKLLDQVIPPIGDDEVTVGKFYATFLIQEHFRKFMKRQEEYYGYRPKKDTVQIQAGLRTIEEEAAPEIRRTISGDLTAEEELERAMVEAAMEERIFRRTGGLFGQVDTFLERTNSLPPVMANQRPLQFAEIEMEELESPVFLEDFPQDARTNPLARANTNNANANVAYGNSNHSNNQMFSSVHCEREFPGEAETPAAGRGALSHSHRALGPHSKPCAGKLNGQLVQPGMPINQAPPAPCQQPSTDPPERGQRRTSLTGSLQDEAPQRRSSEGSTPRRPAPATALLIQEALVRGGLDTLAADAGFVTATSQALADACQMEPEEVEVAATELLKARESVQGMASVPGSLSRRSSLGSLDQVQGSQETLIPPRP
T2 sequence (P13806 27-960 partner limits assumed): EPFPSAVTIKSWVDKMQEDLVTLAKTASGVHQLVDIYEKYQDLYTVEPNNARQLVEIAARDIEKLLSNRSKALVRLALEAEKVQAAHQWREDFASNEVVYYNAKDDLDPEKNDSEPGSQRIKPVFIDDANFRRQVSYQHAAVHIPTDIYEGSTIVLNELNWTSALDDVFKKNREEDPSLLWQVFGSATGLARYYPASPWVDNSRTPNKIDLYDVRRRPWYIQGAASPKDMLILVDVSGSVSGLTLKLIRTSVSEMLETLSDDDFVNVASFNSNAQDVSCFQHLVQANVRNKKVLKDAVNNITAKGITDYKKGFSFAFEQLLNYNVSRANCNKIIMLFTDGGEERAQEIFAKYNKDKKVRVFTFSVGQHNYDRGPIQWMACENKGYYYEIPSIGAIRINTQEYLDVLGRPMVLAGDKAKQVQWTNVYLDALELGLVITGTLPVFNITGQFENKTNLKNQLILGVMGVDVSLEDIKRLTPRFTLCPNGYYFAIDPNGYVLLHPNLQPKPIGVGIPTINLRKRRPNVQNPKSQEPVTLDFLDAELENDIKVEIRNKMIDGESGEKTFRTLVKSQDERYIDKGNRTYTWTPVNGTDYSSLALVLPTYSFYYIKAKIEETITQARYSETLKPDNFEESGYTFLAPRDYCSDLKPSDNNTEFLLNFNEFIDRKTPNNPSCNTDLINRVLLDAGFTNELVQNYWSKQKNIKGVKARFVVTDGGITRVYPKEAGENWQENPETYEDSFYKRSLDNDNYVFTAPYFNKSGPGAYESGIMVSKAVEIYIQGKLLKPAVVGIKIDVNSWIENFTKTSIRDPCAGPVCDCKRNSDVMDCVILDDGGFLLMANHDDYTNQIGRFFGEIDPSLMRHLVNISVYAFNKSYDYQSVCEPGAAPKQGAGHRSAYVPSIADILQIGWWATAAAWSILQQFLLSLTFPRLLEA
T2 sequence (P13806 961-1106 partner limits assumed): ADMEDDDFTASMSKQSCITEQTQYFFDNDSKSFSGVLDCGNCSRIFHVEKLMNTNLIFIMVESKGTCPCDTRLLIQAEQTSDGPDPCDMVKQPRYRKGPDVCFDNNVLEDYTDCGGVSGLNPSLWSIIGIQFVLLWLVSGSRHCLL
T2 sequence (P19517 whole entry partner): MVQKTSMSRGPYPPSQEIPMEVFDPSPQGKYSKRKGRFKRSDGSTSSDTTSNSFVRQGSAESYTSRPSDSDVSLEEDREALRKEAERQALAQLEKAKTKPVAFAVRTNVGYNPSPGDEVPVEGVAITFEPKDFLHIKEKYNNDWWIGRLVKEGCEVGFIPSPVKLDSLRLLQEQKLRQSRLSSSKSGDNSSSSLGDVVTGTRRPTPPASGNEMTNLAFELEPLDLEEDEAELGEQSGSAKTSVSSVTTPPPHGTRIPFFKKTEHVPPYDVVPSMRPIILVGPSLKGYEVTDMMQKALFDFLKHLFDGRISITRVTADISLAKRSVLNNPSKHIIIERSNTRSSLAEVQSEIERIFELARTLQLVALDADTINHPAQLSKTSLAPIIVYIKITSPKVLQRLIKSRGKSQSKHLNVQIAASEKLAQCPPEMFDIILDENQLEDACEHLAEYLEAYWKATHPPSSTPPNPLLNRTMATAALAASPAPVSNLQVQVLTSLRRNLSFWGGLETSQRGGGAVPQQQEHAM
T2 sequence (P19518 whole entry partner): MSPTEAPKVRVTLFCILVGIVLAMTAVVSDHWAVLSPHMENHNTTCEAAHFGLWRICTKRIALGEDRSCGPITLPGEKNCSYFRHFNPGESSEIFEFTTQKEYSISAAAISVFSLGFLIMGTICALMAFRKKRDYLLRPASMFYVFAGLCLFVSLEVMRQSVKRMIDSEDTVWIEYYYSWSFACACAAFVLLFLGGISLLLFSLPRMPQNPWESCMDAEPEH

Compound: COC(=O)[C@@H]1[C@H]2C[C@H]3c4[nH]c5ccccc5c4CCN3C[C@@H]2CC[C@@H]1O [Yohimbine, reference compound]
IC50 (Alpha adrenergic α2): 31 nM

Compound: CC(C)(Sc1cc(C(C)(C)C)c(O)c(C(C)(C)C)c1)Sc1cc(C(C)(C)C)c(O)c(C(C)(C)C)c1 [Probucol, reference compound]
activity at 10 µM (cardiac cells [1]; 10^-5 M): 68 ± 0.9%
activity at 1 µM (cardiac cells [1]; 10^-6 M): 95 ± 1.7%
IC50 (human LDL's): 3000 nM

Compound: COc1cccc(CCN(C)CCCC(C#N)(c2ccc(OC)c(OC)c2)C(C)C)c1 (centres unmarked) [Example D888, reference compound]
IC50 (type L Ca^2+ channel): 23 nM
IC50 (type L calcium channels [2]): 2.5 nM

Compound: COc1ccc(CSC2CCN(Cc3cc(C(C)(C)C)c(O)c(C(C)(C)C)c3)CC2)c(OC)c1OC [Example 13, 4-(2,3,4-trimethoxybenzylthio)-1-(3,5-di-tert.-butyl-4-hydroxybenzyl)piperidine]
protection of cardiac cells with respect to oxidative necrosis (in words) (cardiac cells [1]): markedly superior to the anti-oxidant reference products
activity at 10 µM (cardiac cells [1]; 10^-5 M): 16.1 ± 5.6%
activity at 1 µM (cardiac cells [1]; 10^-6 M): 52.4 ± 18.2%
activity at 0.1 µM (cardiac cells [1]; 10^-7 M): 75.7 ± 19.7%
inhibition at 1 µM (cardiac cells [1]): ≥ 50%
IC50 (human LDL's): 3000 nM

Compound: vitamin E [reference compound]
necrosis index (cardiac cells [1]; 10^-5 M, 10 µM): 54.9 ± 11.3
necrosis index (cardiac cells [1]; 10^-6 M, 1 µM): 87.6 ± 5.7
necrosis index (cardiac cells [1]; 10^-7 M, 0.1 µM): 97.1 ± 2.6
IC50 (human LDL's): > 100000 nM

Compound: COc1ccc(CSC2CCN(CCCc3cc(C(C)(C)C)c(O)c(C(C)(C)C)c3)CC2)c(OC)c1OC [Example 15, 4-(2,3,4-trimethoxybenzylthio)-1-[3-(3,5-di-tert.-butyl-4-hydroxyphenyl)propyl]piperidine]
IC50 (human LDL's): 3000 nM

Compound: C=CCc1ccccc1OCC(O)CNC(C)C (centres unmarked) [Alprenolol]
IC50 (Beta adrenergic β): 2.1 nM

Compound: COc1ccc(CN2CCNCC2)c(OC)c1OC [Trimetazidine, 2 HCl, trimetazidine dihydrochloride, reference compound]
activity at 20 µM (cardiac cells [3]; [5]): 94.6%
activity at 100 µM (cardiac cells [3]; [5]): 75.8%
activity at 500 µM (cardiac cells [3]; [5]): 58.3%
inhibition at 500 µM (cardiac cells [3]; read-out: protection of cell population subjected to intracellular acidosis): 42%
IC50 (Beta adrenergic β): > 100000 nM
IC50 (type L calcium channels [4]): > 100000 nM
IC50 (type L calcium channels [2]): > 100000 nM

Further lines, with some results ahead:

IC50 (human LDL's): 2000 nM
Compound: COc1ccc(CSC2CCN(CCCSc3cc(C(C)(C)C)c(O)c(C(C)(C)C)c3)CC2)c(OC)c1OC [Example 18, 4-(2,3,4-trimethoxybenzylthio)-1-[3-(3,5-di-tert.butyl-4-hydroxyphenylthio)propyl]piperidine]

IC50 (human LDL's): 3000 nM
Compound: COc1ccc(CSC2CCN(CC(O)CSc3cc(C(C)(C)C)c(O)c(C(C)(C)C)c3)CC2)c(OC)c1OC (centres unmarked) [Example 16, 4-(2,3,4-trimethoxybenzylthio)-1-[3-(3,5-di-tert.-butyl-4-hydroxyphenylthio)-2-hydroxypropyl]piperidine]

IC50 (human LDL's): 300 nM
Compound: COc1ccc(CSC2CCN(CCCOc3cc(C)c(O)c(C)c3C)CC2)c(OC)c1OC [Example 19, 4-(2,3,4-trimethoxybenzylthio)-1-[3-(2,3,5-trimethyl-4-hydroxyphenoxy)propyl]piperidine]
protection of cardiac cells with respect to oxidative necrosis (in words) (cardiac cells [1]): markedly superior to the anti-oxidant reference products
activity at 10 µM (cardiac cells [1]; 10^-5 M): 7.9 ± 4.1%
activity at 1 µM (cardiac cells [1]; 10^-6 M): 38.4 ± 13.7%
activity at 0.1 µM (cardiac cells [1]; 10^-7 M): 86 ± 11.5%
inhibition at 1 µM (cardiac cells [1]): ≥ 50%
protection of human LDL's with respect to oxidative modification (in words) (human LDL's; copper sulphate): greater ability

IC50 (human LDL's): 800 nM
Compound: COc1ccc(CSC2CCN(CCCCCOc3cc(C(C)(C)C)c(O)c(C(C)(C)C)c3)CC2)c(OC)c1OC [Example 21, 4-(2,3,4-trimethoxybenzylthio)-1-[5-(3,5-di-tert.-butyl-4-hydroxyphenoxy)pentyl]piperidine]

IC50 (human LDL's): 2000 nM
Compound: COc1ccc(CSC2CCN(CC(O)COc3cc(C(C)(C)C)c(O)c(C(C)(C)C)c3)CC2)c(OC)c1OC (centres unmarked) [Example 17, 4-(2,3,4-trimethoxybenzylthio)-1-[3-(3,5-di-tert.-butyl-4-hydroxyphenoxy)-2-hydroxypropyl]piperidine]

IC50 (human LDL's): 1000 nM
Compound: COc1ccc(CSC2CCN(CCCOc3cc(C(C)(C)C)c(O)c(C(C)(C)C)c3)CC2)c(OC)c1OC [Example 14, 4-(2,3,4-trimethoxybenzylthio)-1-[3-(3,5-di-tert.-butyl-4-hydroxyphenoxy)propyl]piperidine]

IC50 (human LDL's): 1000 nM
Compound: COc1ccc(CSC2CCN(CCCCCSc3cc(C(C)(C)C)c(O)c(C(C)(C)C)c3)CC2)c(OC)c1OC [Example 20, 4-(2,3,4-trimethoxybenzylthio)-1-[5-(3,5-di-tert.butyl-4-hydroxyphenylthio)pentyl]piperidine]
